Experimental data reported in patent US8071625B2, “Certain chemical entities, compositions, and methods” (Cytokinetics, Inc., priority 2006, dated 2011).

What follows are compounds tested against T1, crosslinked smooth muscle actomyosin (chicken gizzard smooth muscle myosin subfragment-1 crosslinked to cardiac or skeletal actin) (Gallus gallus, UniProt P10587) (assay: Lead optimization pyruvate kinase/horseradish peroxidase/pyruvate oxidase-coupled ATPase assay (compound dose response)). Settings: read-out: IC50 Arithmetic Mean.
T1 construct: chicken gizzard smooth muscle myosin subfragment-1; from tissue; host or cells: chicken gizzard
Type: biochemical
How it was run: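 The ATPase used chicken gizzard smooth muscle myosin S1 chemically crosslinked to cardiac or skeletal actin, titrated to a set hydrolysis rate. It was coupled via pyruvate kinase/pyruvate oxidase/HRP in 12 mM K-PIPES pH 7.00 (22 °C) with 0.15 mM ATP, 2 mM MgCl2, 100 mM KCl and 0.1 mM Amplex Red. Fluorescence was read at ex 480/em 615 nm, and IC50 came from a 4-parameter fit.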

Compound	IC50
CCc1ccc(NC(=O)OCCN(CCN)C(=O)NCc2ccccc2Cl)cc1 [N-(2-aminoethyl){[(2-chlorophenyl)methyl]amino}-N-{2-[N-(4-ethylphenyl)carbamoyloxy]ethyl}carboxamide]	2830 nM
CCc1ccc(NC(=O)OCCN(CCCN)C(=O)NCc2ccccc2Cl)cc1 [N-(3-aminopropyl){[(2-chlorophenyl)methyl]amino}-N-{2-[N-(4-ethylphenyl)carbamoyloxy]ethyl}carboxamide]	2540 nM
CCc1ccc(NC(=O)OCCN(CCCCCN)C(=O)NCc2ccccc2Cl)cc1 [N-(5-aminopentyl){[(2-chlorophenyl)methyl]amino}-N-{2-[N-(4-ethylphenyl)carbamoyloxy]ethyl}carboxamide]	487 nM
CCc1ccc(NC(=O)OC[C@@H]2C[C@@H](NC(=O)CN)CN2C(=O)NCc2ccccc2Cl)cc1 [N-((5S,3R)-1-{N-[(2-chlorophenyl)methyl]carbamoyl}-5-{[N-(4-ethylphenyl)carbamoyloxy]methyl}pyrrolidin-3-yl)-2-aminoacetamide]	234 nM
CCc1ccc(NC(=O)OC[C@@H]2C[C@@H](NC(C)=O)CN2C(=O)NCc2ccccc2Cl)cc1 [N-((5S,3R)-1-{N-[(2-chlorophenyl)methyl]carbamoyl}-5-{[N-(4-ethylphenyl)carbamoyloxy]methyl}pyrrolidin-3-yl)acetamide]	1860 nM
CCc1ccc(NC(=O)NCCN(C)C(=O)NCc2ccccc2Cl)cc1 [N-[2-({[(2-chlorophenyl)methyl]amino}-N-methylcarbonylamino)ethyl][(4-ethylphenyl)amino]carboxamide]	6750 nM
CCc1ccc(CC(=O)NCC2(C(=O)NCc3ccccc3Cl)CCN(C(=O)CN)CC2)cc1 [N-[(1-(2-aminoacetyl)-4-{N-[(2-chlorophenyl)methyl]carbamoyl}(4-piperidyl))methyl]-2-(4-ethylphenyl)acetamide]	14900 nM
CCc1ccc(NC(=O)N(CCN)CC2(C(=O)NCc3ccccc3Cl)CCN(C(=O)CN)CC2)cc1 [N-[(1-(2-aminoacetyl)-4-{N-[(2-chlorophenyl)methyl]carbamoyl}(4-piperidyl))methyl]-N-(2-aminoethyl)[(4-ethylphenyl)amino]carboxamide]	16400 nM
CCc1ccc(NC(=O)N(CCCOC)CC2(C(=O)NCc3ccccc3Cl)CCN(C(=O)CN)CC2)cc1 [N-[(1-(2-aminoacetyl)-4-{N-[(2-chlorophenyl)methyl]carbamoyl}(4-piperidyl))methyl][(4-ethylphenyl)amino]-N-(3-methoxypropyl)carboxamide]	12400 nM
CCc1ccc(NC(=O)OCC2(C(=O)NCc3ccccc3Cl)CCN(C(=O)[C@@H](CO)NC(=O)OC(C)(C)C)CC2)cc1 [N-[(1R)-2-(4-{N-[(2-chlorophenyl)methyl]carbamoyl}-4-{[N-(4-ethylphenyl)carbamoyloxy]methyl}piperidyl)-1-(hydroxymethyl)-2-oxoethyl](tert-butoxy)carboxamide]	3500 nM
CCc1ccc(NC(=O)OCC2(C(=O)NCc3ccccc3Cl)CCN(C(=O)[C@@H](C)NC(=O)OC(C)(C)C)CC2)cc1 [N-[(1R)-2-(4-{N-[(2-chlorophenyl)methyl]carbamoyl}-4-{[N-(4-ethylphenyl)carbamoyloxy]methyl}piperidyl)-1-methyl-2-oxoethyl](tert-butoxy)carboxamide]	12000 nM
CCc1ccc(NC(=O)OCC2(C(=O)NCc3ccccc3Cl)CCCN(C(=O)[C@H](CO)NC(=O)OC(C)(C)C)C2)cc1 (stereo partly drawn) [N-[(1S)-2-(3-{N-[(2-chlorophenyl)methyl]carbamoyl}-3-{[N-(4-ethylphenyl)carbamoyloxy]methyl}piperidyl)-1-(hydroxymethyl)-2-oxoethyl](tert-butoxy)carboxamide]	9090 nM
CCc1ccc(NC(=O)OCC2(C(=O)NCc3ccccc3Cl)CCN(C(=O)[C@H](CO)NC(=O)OC(C)(C)C)CC2)cc1 [N-[(1S)-2-(4-{N-[(2-chlorophenyl)methyl]carbamoyl}-4-{[N-(4-ethylphenyl)carbamoyloxy]methyl}piperidyl)-1-(hydroxymethyl)-2-oxoethyl](tert-butoxy)carboxamide]	416 nM
CCc1ccc(NC(=O)OCC2(C(=O)NCc3ccccc3Cl)CCN(C(=O)[C@H](C)NC(=O)OC(C)(C)C)CC2)cc1 [N-[(1S)-2-(4-{N-[(2-chlorophenyl)methyl]carbamoyl}-4-{[N-(4-ethylphenyl)carbamoyloxy]methyl}piperidyl)-1-methyl-2-oxoethyl](tert-butoxy)carboxamide]	1510 nM
CCc1ccc(NC(=O)OCC2(C(=O)NCc3ccccc3Cl)CCN(C(=O)C3CCCCC3)CC2)cc1 [N-[(2-chlorophenyl)methyl](1-(cyclohexylcarbonyl)-4-{[N-(4-ethylphenyl)carbamoyloxy]methyl}(4-piperidyl))carboxamide]	2770 nM
CCc1ccc(NC(=O)OCC2(C(=O)NCc3ccccc3Cl)CCN(C(=O)C3CC3)CC2)cc1 [N-[(2-chlorophenyl)methyl](1-(cyclopropylcarbonyl)-4-{[N-(4-ethylphenyl)carbamoyloxy]methyl}(4-piperidyl))carboxamide]	641 nM
CCc1ccc(NC(=O)OCC2(C(=O)NCc3ccccc3Cl)CCN(CC)CC2)cc1 [N-[(2-chlorophenyl)methyl](1-ethyl-4-{[N-(4-ethylphenyl)carbamoyloxy]methyl}(4-piperidyl))carboxamide]	6280 nM

Compound	IC50
CCc1ccc(NC(=O)OCC2(C(=O)NCc3ccccc3Cl)CC(O)C(O)C2)cc1 (stereo not drawn) [N-[(2-chlorophenyl)methyl](1-{[N-(4-ethylphenyl)carbamoyloxy]methyl}-3,4-dihydroxycyclopentyl)carboxamide]	5510 nM
CCc1ccc(NC(=O)OCC2(C(=O)NCc3ccccc3Cl)CC=CC2)cc1 [N-[(2-chlorophenyl)methyl](1-{[N-(4-ethylphenyl)carbamoyloxy]methyl}cyclopent-3-enyl)carboxamide]	1360 nM
CCc1ccc(NC(=O)OCC2(C(=O)NCc3ccccc3Cl)CCCN(C(=O)CO)C2)cc1 (stereo not drawn) [N-[(2-chlorophenyl)methyl](3-{[N-(4-ethylphenyl)carbamoyloxy]methyl}-1-(2-hydroxyacetyl)(3-piperidyl))carboxamide]	399 nM
N#Cc1ccccc1NC(=O)OCC1(C(=O)NCc2ccccc2Cl)CCOCC1 [N-[(2-chlorophenyl)methyl](4-{[N-(2-cyanophenyl)carbamoyloxy]methyl}(2H-3,4,5,6-tetrahydropyran-4-yl))carboxamide]	17000 nM
Cc1ccc(NC(=O)OCC2(C(=O)NCc3ccccc3Cl)CCOCC2)cc1F [N-[(2-chlorophenyl)methyl](4-{[N-(3-fluoro-4-methylphenyl)carbamoyloxy]methyl}(2H-3,4,5,6-tetrahydropyran-4-yl))carboxamide]	2210 nM
COc1cccc(NC(=O)OCC2(C(=O)NCc3ccccc3Cl)CCOCC2)c1 [N-[(2-chlorophenyl)methyl](4-{[N-(3-methoxyphenyl)carbamoyloxy]methyl}(2H-3,4,5,6-tetrahydropyran-4-yl))carboxamide]	19000 nM
CCc1ccc(N(C)C(=O)OCC2(C(=O)NCc3ccccc3Cl)CCOCC2)cc1 [N-[(2-chlorophenyl)methyl](4-{[N-(4-ethylphenyl)-N-methylcarbamoyloxy]methyl}(2H-3,4,5,6-tetrahydropyran-4-yl))carboxamide]	7630 nM
CCc1ccc(NC(=O)OCC2(C(=O)NCc3ccccc3Cl)CCOCC2)cc1 [N-[(2-chlorophenyl)methyl](4-{[N-(4-ethylphenyl)carbamoyloxy]methyl}(2H-3,4,5,6-tetrahydropyran-4-yl))carboxamide]	197 nM
CCc1ccc(NC(=O)OCC2(C(=O)NCc3ccccc3Cl)CCNCC2)cc1 [N-[(2-chlorophenyl)methyl](4-{[N-(4-ethylphenyl)carbamoyloxy]methyl}(4-piperidyl))carboxamide]	1660 nM
CCc1ccc(NC(=O)OCC2(C(=O)NCc3ccccc3Cl)CCN(C(=O)CO)CC2)cc1 [N-[(2-chlorophenyl)methyl](4-{[N-(4-ethylphenyl)carbamoyloxy]methyl}-1-(2-hydroxyacetyl)(4-piperidyl))carboxamide]	173 nM
CCc1ccc(NC(=O)OCC2(C(=O)NCc3ccccc3Cl)CCN(CCO)CC2)cc1 [N-[(2-chlorophenyl)methyl](4-{[N-(4-ethylphenyl)carbamoyloxy]methyl}-1-(2-hydroxyethyl)(4-piperidyl))carboxamide]	4040 nM
CCc1ccc(NC(=O)OCC2(C(=O)NCc3ccccc3Cl)CCN(C(=O)COC)CC2)cc1 [N-[(2-chlorophenyl)methyl](4-{[N-(4-ethylphenyl)carbamoyloxy]methyl}-1-(2-methoxyacetyl)(4-piperidyl))carboxamide]	486 nM
CCc1ccc(NC(=O)OCC2(C(=O)NCc3ccccc3Cl)CCN(C(=O)c3ccccn3)CC2)cc1 [N-[(2-chlorophenyl)methyl](4-{[N-(4-ethylphenyl)carbamoyloxy]methyl}-1-(2-pyridylcarbonyl)(4-piperidyl))carboxamide]	757 nM
CCc1ccc(NC(=O)OCC2(C(=O)NCc3ccccc3Cl)CCN(C(=O)CCOC)CC2)cc1 [N-[(2-chlorophenyl)methyl](4-{[N-(4-ethylphenyl)carbamoyloxy]methyl}-1-(3-methoxypropanoyl)(4-piperidyl))carboxamide]	606 nM
CCc1ccc(NC(=O)OCC2(C(=O)NCc3ccccc3Cl)CCN(C(=O)c3cccnc3)CC2)cc1 [N-[(2-chlorophenyl)methyl](4-{[N-(4-ethylphenyl)carbamoyloxy]methyl}-1-(3-pyridylcarbonyl)(4-piperidyl))carboxamide]	695 nM
CCc1ccc(NC(=O)OCC2(C(=O)NCc3ccccc3Cl)CCN(C(=O)CCCO)CC2)cc1 [N-[(2-chlorophenyl)methyl](4-{[N-(4-ethylphenyl)carbamoyloxy]methyl}-1-(4-hydroxybutanoyl)(4-piperidyl))carboxamide]	492 nM
